Measurements reported in patent publication US20030187059A1, “Methods and compounds useful in inhibiting oxidative and/or free radical damage and in the treatment and prevention of disease” (priority 2002, published 2003).

System: rat liver microsomes
Test: Inhibition of ferrous ion-stimulated formation of maliondialdehyde (lipid peroxidation) in rat liver microsomes
Format: biochemical
Conditions: ferrous sulfate 1 mM, 37° C. for 1 hour, test compound in DMSO, read-out: IC50, inhibition of production of MDA (as measured by the MDA-TBA adduct)
Experimental: The in vitro antioxidant activity of Compound MH-1 was evaluated by measuring its inhibitory effect on the ferrous ion-stimulated formation of maliondialdehyde (“MDA”), an end product of lipid peroxidation, in rat liver microsomes. The antioxidant activity of Compound MH-1 was compared with the in vitro antioxidant activity of α-tocopherol, a known antioxidant. A modified procedure originally described in Bernheim et al., “The Reaction Between Thiobarbituric Acid and the Oxidation Products of Certain Lipids,” J. Biol. Chem., 174:257-264 (1948) and Wills, “Lipid Peroxide Formation in Microsomes,” Biochem. J., 113:325-332 (1969), which are hereby incorporated by reference, was used to carry out the assay.
Freshly harvested rat livers (100 mg/ml) were homogenized in Tris-KCl buffer (0.05M, pH 7.4). The microsomal fraction was isolated by differential centrifugation (40,000 rpm; 106,000 g) and resuspended in Tris-KCl (100 mg/ml, initial concentration). The microsomal suspension was incubated with or without the test compound (Compound MH-1 in DMSO, 0.0-0.5mM or α-tocopherol in dimethylsulfoxide, 0.0-0.6 mM) at 37° C. for 3 minutes. […] Maliondialdeyde-TBA adduct concentrations in the butanol extract were measured by fluorescence spectroscopy (emission 553 nm, excitation 532 nm). […]

IC50	Structure (SMILES)
266 µM	Cc1c(C)c2c(c(C)c1OC(=O)CCCC[C@@H]1CCSS1)CC[C@@](C)(CC[C@H](C)CCC[C@H](C)CCCC(C)C)O2 [Compound MH-1]
307 µM	Cc1c(C)c2c(c(C)c1O)CC[C@@](C)(CCC[C@H](C)CCC[C@H](C)CCCC(C)C)O2 [α-tocopherol]
